Data as given in ChEMBL document CHEMBL1201862, “PubChem BioAssay data set” (2004).
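Cells were grown in 96-well plates and exposed to each compound for 48 hours at five concentrations; endpoints were interpolated linearly between bracketing concentrations, or set to the highest concentration if not reached. Here, GI50 denotes the concentration required for 50% inhibition of growth.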 The source made the active and inactive calls. No stated cut-off is given here; in the data, active = GI50 up to about 1.1 µM and inactive = higher.

What was measured:
Experiment in all cases: NCI-60 cell line screen, 48 h
786-0 = test system: 786-0
A498 = test system: A498
A549 = test system: A549
ACHN = test system: ACHN
BT-549 = test system: BT-549
CAKI-1 = test system: CAKI-1
CCRF-CEM = test system: CCRF-CEM
COLO 205 = test system: COLO 205
DU-145 = test system: DU-145
EKVX = test system: EKVX
HCC 2998 = test system: HCC 2998
HCT-116 = test system: HCT-116
HCT-15 = test system: HCT-15
HL-60 = test system: HL-60
HOP-62 = test system: HOP-62
HOP-92 = test system: HOP-92
HT-29 = test system: HT-29
Hs-578T = test system: Hs-578T
IGROV-1 = test system: IGROV-1
K562 = test system: K562
KM12 = test system: KM12
LOX IMVI = test system: LOX IMVI
M14 = test system: M14
MCF7 = test system: MCF7
MDA-MB-231 = test system: MDA-MB-231
MDA-MB-435 = test system: MDA-MB-435
MDA-N = test system: MDA-N
MOLT-4 = test system: MOLT-4
Malme-3M = test system: Malme-3M
NCI-H23 = test system: NCI-H23
NCI-H460 = test system: NCI-H460
NCI-H522 = test system: NCI-H522
NCI/ADR-RES = test system: NCI/ADR-RES
OVCAR-3 = test system: OVCAR-3
OVCAR-4 = test system: OVCAR-4
OVCAR-5 = test system: OVCAR-5
OVCAR-8 = test system: OVCAR-8
PC-3 = test system: PC-3
RPMI-8226 = test system: RPMI-8226
RXF 393 = test system: RXF 393
SF-268 = test system: SF-268
SF-295 = test system: SF-295
SF-539 = test system: SF-539
SK-MEL-28 = test system: SK-MEL-28
SK-MEL-2 = test system: SK-MEL-2
SK-MEL-5 = test system: SK-MEL-5
SK-OV-3 = test system: SK-OV-3
SN12C = test system: SN12C
SNB-19 = test system: SNB-19
SNB-75 = test system: SNB-75
SR = test system: SR
SW-620 = test system: SW-620
T47D = test system: T47D
TK-10 = test system: TK-10
U-251 = test system: U-251
UACC-257 = test system: UACC-257
UACC-62 = test system: UACC-62
UO-31 = test system: UO-31
NCI-H226 = test system: NCI-H226

Measured: GI50

CC(=O)Nc1nc(C)c(S(=O)(=O)NC(=O)N2c3ccccc3CCc3ccccc32)s1
> 100 µM: HCT-15
inactive: 786-0 > 100 µM | A498 > 100 µM | A549 > 100 µM | ACHN > 100 µM | BT-549 > 100 µM | CAKI-1 > 100 µM | CCRF-CEM 44.6 µM | COLO 205 > 100 µM | DU-145 > 100 µM | EKVX > 100 µM | HCC 2998 > 100 µM | HCT-116 > 100 µM | HL-60 > 100 µM | HOP-62 > 100 µM | HOP-92 > 100 µM | HT-29 > 100 µM | Hs-578T > 100 µM | IGROV-1 > 100 µM | K562 > 100 µM | KM12 > 100 µM | LOX IMVI > 100 µM | M14 > 100 µM | MCF7 > 100 µM | MDA-MB-231 > 100 µM | MDA-MB-435 > 100 µM | MDA-N > 100 µM | MOLT-4 89.5 µM | Malme-3M > 100 µM | NCI-H23 > 100 µM | NCI-H460 > 100 µM | NCI-H522 > 100 µM | NCI/ADR-RES > 100 µM | OVCAR-3 > 100 µM | OVCAR-4 > 100 µM | OVCAR-5 > 100 µM | OVCAR-8 > 100 µM | PC-3 > 100 µM | RPMI-8226 > 100 µM | RXF 393 > 100 µM | SF-268 > 100 µM | SF-295 > 100 µM | SF-539 > 100 µM | SK-MEL-28 > 100 µM | SK-MEL-2 > 100 µM | SK-MEL-5 > 100 µM | SK-OV-3 > 100 µM | SN12C > 100 µM | SNB-19 29.4 µM | SNB-75 > 100 µM | SR > 100 µM | SW-620 > 100 µM | T47D > 100 µM | TK-10 > 100 µM | U-251 > 100 µM | UACC-257 > 100 µM | UACC-62 > 100 µM | UO-31 > 100 µM

CN/C(=N\c1ccc(OC)c2ccccc12)SC
inactive: 786-0 > 10 µM | A549 > 10 µM | ACHN > 10 µM | BT-549 > 10 µM | CAKI-1 > 10 µM | CCRF-CEM > 10 µM | COLO 205 > 10 µM | DU-145 > 10 µM | HCC 2998 > 10 µM | HCT-116 > 10 µM | HL-60 > 10 µM | HOP-62 > 10 µM | HOP-92 > 10 µM | HT-29 > 10 µM | Hs-578T > 10 µM | IGROV-1 > 10 µM | K562 > 10 µM | KM12 > 10 µM | LOX IMVI > 10 µM | M14 > 10 µM | MCF7 > 10 µM | MDA-MB-231 > 10 µM | MDA-MB-435 > 10 µM | MDA-N > 10 µM | MOLT-4 > 10 µM | Malme-3M > 10 µM | NCI-H23 > 10 µM | NCI-H522 > 10 µM | NCI/ADR-RES > 10 µM | OVCAR-3 > 10 µM | OVCAR-4 > 10 µM | OVCAR-5 2.86 µM | OVCAR-8 > 10 µM | PC-3 > 10 µM | RPMI-8226 > 10 µM | SF-268 > 10 µM | SF-295 7.43 µM | SF-539 > 10 µM | SK-MEL-28 > 10 µM | SK-MEL-5 > 10 µM | SK-OV-3 > 10 µM | SN12C > 10 µM | SNB-19 > 10 µM | SNB-75 > 10 µM | SR > 10 µM | SW-620 > 10 µM | T47D > 10 µM | TK-10 > 10 µM | U-251 > 10 µM | UACC-257 > 10 µM | UACC-62 > 10 µM
> 10 µM: HCT-15

COC(=O)C1=Nc2c(C)nn(-c3ccccc3)c2N=C(c2ccc([N+](=O)[O-])cc2)C1
> 10 µM: HCT-15
inactive: 786-0 > 10 µM | A549 > 10 µM | ACHN > 10 µM | BT-549 > 10 µM | CAKI-1 > 10 µM | CCRF-CEM > 10 µM | COLO 205 > 10 µM | DU-145 > 10 µM | HCC 2998 > 10 µM | HCT-116 > 10 µM | HL-60 > 10 µM | HOP-62 > 10 µM | HOP-92 > 10 µM | HT-29 > 10 µM | Hs-578T > 10 µM | IGROV-1 > 10 µM | K562 > 10 µM | KM12 > 10 µM | LOX IMVI > 10 µM | M14 > 10 µM | MCF7 > 10 µM | MDA-MB-231 > 10 µM | MDA-MB-435 > 10 µM | MDA-N > 10 µM | MOLT-4 > 10 µM | Malme-3M > 10 µM | NCI-H23 > 10 µM | NCI-H522 > 10 µM | NCI/ADR-RES > 10 µM | OVCAR-3 > 10 µM | OVCAR-4 > 10 µM | OVCAR-5 5.98 µM | OVCAR-8 > 10 µM | PC-3 > 10 µM | RPMI-8226 > 10 µM | SF-268 > 10 µM | SF-295 > 10 µM | SF-539 > 10 µM | SK-MEL-28 > 10 µM | SK-MEL-5 > 10 µM | SK-OV-3 > 10 µM | SN12C > 10 µM | SNB-19 > 10 µM | SNB-75 > 10 µM | SR > 10 µM | SW-620 > 10 µM | T47D > 10 µM | TK-10 > 10 µM | U-251 > 10 µM | UACC-257 > 10 µM | UACC-62 > 10 µM

COC(=O)NC(Cc1ccccc1)NC(C)=O (stereo not drawn)
> 100 µM: HCT-15
inactive: 786-0 > 100 µM | A498 > 100 µM | A549 > 100 µM | ACHN > 100 µM | BT-549 > 100 µM | CAKI-1 > 100 µM | CCRF-CEM > 100 µM | COLO 205 > 100 µM | DU-145 > 100 µM | EKVX > 100 µM | HCC 2998 > 100 µM | HCT-116 > 100 µM | HL-60 > 100 µM | HOP-62 > 100 µM | HOP-92 > 100 µM | HT-29 > 100 µM | Hs-578T 5.3 µM | IGROV-1 > 100 µM | K562 > 100 µM | KM12 > 100 µM | LOX IMVI > 100 µM | M14 > 100 µM | MCF7 > 100 µM | MDA-MB-231 71 µM | MDA-MB-435 > 100 µM | MDA-N > 100 µM | MOLT-4 > 100 µM | Malme-3M > 100 µM | NCI-H23 > 100 µM | NCI-H460 > 100 µM | NCI-H522 > 100 µM | NCI/ADR-RES > 100 µM | OVCAR-3 > 100 µM | OVCAR-4 > 100 µM | OVCAR-5 > 100 µM | OVCAR-8 > 100 µM | PC-3 > 100 µM | RPMI-8226 > 100 µM | RXF 393 > 100 µM | SF-268 > 100 µM | SF-295 > 100 µM | SF-539 > 100 µM | SK-MEL-28 > 100 µM | SK-MEL-2 > 100 µM | SK-MEL-5 > 100 µM | SK-OV-3 > 100 µM | SN12C > 100 µM | SNB-19 > 100 µM | SNB-75 > 100 µM | SR > 100 µM | SW-620 > 100 µM | T47D > 100 µM | TK-10 > 100 µM | U-251 > 100 µM | UACC-257 > 100 µM | UACC-62 > 100 µM | UO-31 > 100 µM

CCCN(CCc1ccc(-c2ccccc2)cc1)CCc1ccc2nn[nH]c2c1
inactive: 786-0 11.7 µM | A498 17.3 µM | A549 13.1 µM | ACHN 12.8 µM | BT-549 8.2 µM | CAKI-1 12.6 µM | CCRF-CEM 4.26 µM | COLO 205 2.55 µM | DU-145 9.25 µM | EKVX 13.5 µM | HCC 2998 6.71 µM | HCT-116 4.66 µM | HOP-62 12.5 µM | HOP-92 5.37 µM | HT-29 11.5 µM | Hs-578T 17.4 µM | IGROV-1 10 µM | K562 2.94 µM | KM12 11.9 µM | LOX IMVI 10.6 µM | M14 4.28 µM | MCF7 11.6 µM | MDA-MB-231 13.6 µM | MDA-MB-435 8.93 µM | MDA-N 6.07 µM | MOLT-4 3.75 µM | Malme-3M 8.79 µM | NCI-H226 15.8 µM | NCI-H23 12.2 µM | NCI-H460 8.51 µM | NCI-H522 11.8 µM | NCI/ADR-RES 14.7 µM | OVCAR-3 12.5 µM | OVCAR-4 14.6 µM | OVCAR-5 17.1 µM | OVCAR-8 13.7 µM | PC-3 9.44 µM | RPMI-8226 4.52 µM | RXF 393 12.2 µM | SF-268 19.2 µM | SF-295 12 µM | SF-539 10.7 µM | SK-MEL-28 4.31 µM | SK-MEL-2 15.6 µM | SK-MEL-5 3.91 µM | SK-OV-3 14.2 µM | SN12C 13.6 µM | SNB-19 13.1 µM | SNB-75 12.3 µM | SR 3.74 µM | SW-620 10.7 µM | T47D 4.04 µM | TK-10 11.5 µM | U-251 12.9 µM | UACC-257 4.84 µM | UACC-62 9.23 µM | UO-31 9.31 µM
7.76 µM: HCT-15
